This note sets out measurements from patent publication US5430150A, “Retroviral protease inhibitors” (American Cyanamid Company, priority 1992, dated 1995).

For test [1], the target named is HIV-1 protease (Human immunodeficiency virus type 1 group M subtype B, UniProt P04585). Nature of the test: biochemical. The class given is biochemical. Conditions: Activity of Compounds as Enzyme Inhibitor. How it is done:
IC50 values for enzyme inhibition are determined using HIV-1 and Amersham's HIV proteinase [^125 I]-scintillation proximity assay (SPA).
Amersham's HIV proteinase [^125 I]-SPA system is a commercial assay incorporating the scintillation proximity assay (SPA) principle available from Amersham International PLC, Bucks, England.
The SPA microspheres provided by Amersham have the substrate linked directly to the surface through a streptavidin-biotin link. The substrate is a 12 residue peptide designed specifically for this application utilizing current knowledge of known cleavage sites for the enzyme and analogue substrate studies. The sequence of the substrate is: [drawing 22]
The peptide is monoiodinated on the tyrosine residue and biotinylated through the epsilon-NH2 group on the lysine. It is linked to the SPA bead via a streptavidin-link. The beads are suspended in a buffer consisting of 5 mM DTT, 1 mM EDTA, 10% w/v glycerol, 0.05% W/v sodium azide, 0.01% v/v Triton X-100 in 25 mM sodium citrate buffer pH 5.5.
The enzyme cleaves at the Phe-Phe bond releasing the ^125 I fragment from the bead. This event causes the removal of detectable signal from the microsphere. […] The rate of reduction in signal is proportional to the activity of the enzyme. The obtained data is used to calculate the IC50 values found in Table 1.

Test [2] has as its system HIV-1 strain IIIB in T lymphoid MT-2 cell lines. Nature of the test: inhibition of growth of HIV-1 strain IIIB in T lymphoid MT-2 cell lines (metabolic MTT dye). In kind it is cell-based. The note with it: Human immunodeficiency virus 1, IIIB, MT2, 120 h, 5 days; for inhibition at 0.01 µg/mL: 0.010 μg/ml, read-out: % Inhibition at concentration 0.010 μg/ml; for inhibition at 0.039 µg/mL: 0.039 μg/ml, read-out: % Inhibition at concentration 0.039 μg/ml; for inhibition at 0.156 µg/mL: 0.156 μg/ml, read-out: % Inhibition at concentration 0.156 μg/ml; for inhibition at 0.625 µg/mL: 0.625 μg/ml, read-out: % Inhibition at concentration 0.625 μg/ml; for inhibition at 2.5 µg/mL: 2.5 μg/ml, read-out: % Inhibition at concentration 2.5 μg/ml. As for the experimental part:
In Table 2, data is shown for the ability of these compounds to inhibit growth of HIV-1 strain IIIB in T lymphoid MT-2 cell lines. The cell line is challenged by free virons selected to result in 90-95% cell death (CPE) by day 5. The protease inhibitor compound is then added in the stated concentration. After 5 days, the surviving cells are measured using metabolic MTT dye.
A general note: Formazan colour is commonly taken as a measure of viable cells.

Take `CC[C@H](C)[C@H](NC(=O)[C@H](Cc1ccccc1)CC(O)(CO)CN1C[C@H]2CCCC[C@H]2C[C@H]1C(=O)NC(C)(C)C)C(=O)OC` (relative stereo) [Example 30, 3S-[2(2S*),3alpha,4abeta,8abeta]]-N-[5-[3-[[(1,1-Dimethylethyl)amino]carbonyl]octahydro-2(1H)-isoquinolinyl]4-hydroxy-4-(hydroxymethyl)-1-oxo-2-(phenylmethyl)pentyl]-L-isoleucine methyl ester]: in test [1], the IC50 (commonly the concentration needed to halve the response being measured) was 415 nM.
`CC[C@H](C)[C@H](NC(=O)[C@H](Cc1ccccc1)CC(O)CN1C[C@H]2CCCC[C@H]2C[C@H]1C(=O)NC(C)(C)C)C(=O)NCc1nc2ccccc2[nH]1` (single isomer, unassigned) [Example 24A, [3S-[2[alphaS*(1R*,2R*),gammaR*(or S*),3alpha,4abeta,8abeta]]-N-[1-[[(1H-Benzimidazol-2-ylmethyl)amino]carbonyl]-2-methylbutyl]-3-[(1,1-dimethylethyl)amino]carbonyl]decahydro-gamma-hydroxy-alpha-(pentylmethyl)-2-isoquinolinepentanamide] showed an IC50 in test [1] of 72.8 nM. For the same compound, in test [2], the inhibition at 0.01 µg/mL is 10.7%, the inhibition at 0.039 µg/mL amounted to 63.3%, the inhibition at 0.156 µg/mL is 100% and the inhibition at 0.625 µg/mL came to 103%. The inhibition at 2.5 µg/mL in test [2] is 96%.
With `CC[C@H](C)[C@H](NC(=O)[C@H](Cc1ccccc1)CC(O)(CO)CN1C[C@H]2CCCC[C@H]2C[C@H]1C(=O)NC(C)(C)C)C(=O)NCc1nc2ccccc2[nH]1` (stereo partly drawn) [Example 21, [3S-[2[alphaS*(1R*,2R*),gammaR*(and S*),3alpha,4abeta,8abeta]]-N[1-[[(1H-Benzimidazol-2-ylmethyl)amino]carbonyl]-2-methylbutyl]-3-[[(1,1-dimethylethyl)amino]carbonyl]decahydro-gamma-hydroxy-gamma-(hydroxymethyl)alpha-(phenylmethyl)-2-isoquinolinepentanamide], in test [1], the IC50 was 69.7 nM. Besides, in test [2], the inhibition at 0.01 µg/mL is 0%, the inhibition at 0.039 µg/mL was 8.1%, the inhibition at 0.156 µg/mL came to 33% and the inhibition at 0.625 µg/mL was determined as 103%. For the same compound, the inhibition at 2.5 µg/mL in test [2] was 102%.
As to `CC[C@H](C)[C@H](NC(=O)[C@H](Cc1ccccc1)CC(O)(CO)CN1C[C@H]2CCCC[C@H]2C[C@H]1C(=O)NC(C)(C)C)C(=O)NCc1ccccn1` (stereo partly drawn) [Example 26, [3S-[2[gammaR*(and S*),gamma[alphaS*[1R*,1(R*)]]],3alpha,4abeta,8abeta]]-3-[[(1,1-Dimethylethyl)amino]carbonyl]octahydro-gamma-hydroxy-gamma-(hydroxymethyl)-N-[[2-methyl-1-[[(2-pyridinylmethyl)amino]carbonyl]butyl]-alpha-(phenylmethyl)-2(1H)-isoquinolinepentanamide], the IC50 in test [1] is 738 nM.
The same measure, in the same setting: under `CC[C@H](C)[C@H](NC(=O)[C@H](Cc1ccccc1)CC(O)CN1C[C@H]2CCCC[C@H]2C[C@H]1C(=O)NC(C)(C)C)C(=O)NCc1ccccn1` (stereo partly drawn) [Example 28, [3S-[2[gammaR*(and S*),gamma[alphaS*[1R,1(R*)]]]],3alpha,4abeta,8abeta]]-3-[[(1,1-Dimethylethyl)amino]carbonyl]octahydro-gamma-hydroxy-N-[2-methyl-1-[[(2-pyridinylmethyl)amino]carbonyl]butyl]-alpha-(phenylmethyl)-2(1H)-isoqinolinepentanamide] stands 154 nM.
For the compound `CC[C@H](C)[C@H](NC(=O)[C@H](Cc1ccccc1)CC(O)CN1C[C@H]2CCCC[C@H]2C[C@H]1C(=O)NC(C)(C)C)C(=O)OC` (stereo partly drawn) [Example 32, [3S-[2[2S*,4R*(and S*)],3alpha,4abeta,8abeta]-N-[5-[3-[[(1,1-Dimethylethyl)amino]carbonyl]octahydro-2(1H)-isoquinolinyl]-4-hydroxy-1-oxo-2-(phenylmethyl)pentyl]-L-isoleucinemethyl ester], the IC50 in test [1] is 874 nM.
